Format in all cases: binding
Assay [1] addresses T1, BTK_481 (Homo sapiens, UniProt Q06187).
T1 construct: In each the cell lysate was pretreated with compound; endogenous in cells
In words: Probe labeling at native and denatured states after pretreatment (Table 2). The note with it: screening concentration.

Assay [2] addresses T2, CRBN_188 (Homo sapiens, UniProt Q96SW2).
T2 construct: endogenous in cells; host or cells: cell lysate
The description is as above. The method, then: (§1) To determine whether the co-inhibition of C287 and C318 was due to a direct or indirect mechanism, CRBN was pretreated with various Michael acceptor compounds and then tested for probe labeling in its native and denatured states.
(§2) In each the cell lysate was pretreated with compound, for native state data the probe was immediately added and for denatured data the probe was added after an additional step of denaturation (schematic shown in FIG. 4).

Assay [3] concerns the target T3, CRBN_219 (Homo sapiens, UniProt Q96SW2).
T3 construct: endogenous in cells; host or cells: cell lysate
The assay is described as above. On the procedure: as §1, §2

For assay [4], the target named is T4, CRBN_343 (Homo sapiens, UniProt Q96SW2).
T4 construct: endogenous in cells; host or cells: cell lysate
The assay is described as above. On the procedure:
as §1, §2

The target of assay [5] is T5, CRBN_326 (Homo sapiens, UniProt Q96SW2).
T5 construct: endogenous in cells; host or cells: cell lysate
Described as above. The method, then:
as §1, §2

The target in assay [6] is T6, CRBN_310 (Homo sapiens, UniProt Q96SW2).
T6 construct: endogenous in cells; host or cells: cell lysate
Described as above. The method, then:
as §1, §2

For assay [7], the target named is T7, CRBN_234 (Homo sapiens, UniProt Q96SW2).
T7 construct: endogenous in cells; host or cells: cell lysate
The assay is described as above. The method, then: as §1, §2

Assay [8] addresses T8, CRBN_441 (Homo sapiens, UniProt Q96SW2).
T8 construct: endogenous in cells; host or cells: cell lysate
Described as above. The method, then: as §1, §2

Assay [9] deals with T9, CRBN_322 (Homo sapiens, UniProt Q96SW2).
T9 construct: endogenous in cells; host or cells: cell lysate
The assay is described as above. On the procedure: as §1, §2

The target of assay [10] is T10, CRBN_205 (Homo sapiens, UniProt Q96SW2).
T10 construct: endogenous in cells; host or cells: cell lysate
The description is as above. The method, then:
as §1, §2

The target in assay [11] is CRBN-287 (Homo sapiens, UniProt Q96SW2). The description is as above. On the set-up: endogenous in cells; host or cells: cell lysate. On the procedure:
as §1, §2

Assay [12] concerns the target CRBN-318 (Homo sapiens, UniProt Q96SW2). The description is as above. On the set-up: endogenous in cells; host or cells: cell lysate. On the procedure: as §1, §2
In assay [13] the target is T11, TEC_449 (Homo sapiens, UniProt P42680).
T11 construct: In each the cell lysate was pretreated with compound; endogenous in cells
T11 sequence (P42680 1-631): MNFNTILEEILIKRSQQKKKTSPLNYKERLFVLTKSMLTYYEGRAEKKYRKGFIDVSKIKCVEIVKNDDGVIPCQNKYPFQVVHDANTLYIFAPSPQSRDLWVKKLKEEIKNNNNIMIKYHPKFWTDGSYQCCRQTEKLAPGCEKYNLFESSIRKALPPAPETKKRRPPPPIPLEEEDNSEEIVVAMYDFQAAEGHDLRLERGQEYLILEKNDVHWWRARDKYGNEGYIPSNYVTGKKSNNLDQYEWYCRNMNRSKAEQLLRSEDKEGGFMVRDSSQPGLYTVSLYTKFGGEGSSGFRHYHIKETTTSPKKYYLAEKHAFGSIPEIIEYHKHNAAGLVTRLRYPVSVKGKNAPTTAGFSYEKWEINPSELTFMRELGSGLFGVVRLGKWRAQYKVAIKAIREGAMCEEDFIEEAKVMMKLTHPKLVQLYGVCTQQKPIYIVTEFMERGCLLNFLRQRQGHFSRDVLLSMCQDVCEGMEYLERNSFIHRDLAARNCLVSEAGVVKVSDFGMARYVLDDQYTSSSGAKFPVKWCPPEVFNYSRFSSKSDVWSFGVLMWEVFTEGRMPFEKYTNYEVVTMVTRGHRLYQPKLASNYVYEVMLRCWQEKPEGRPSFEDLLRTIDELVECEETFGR
Described as above. To be noted: screening concentration.

For assay [14], the target named is T12, CRBN Cys234 (Homo sapiens, UniProt Q96SW2).
T12 construct: endogenous in cells
In words: Inhibition of iodoacetamide probe labeling of CRBN cysteines, cell lysate (Table 3A). To be noted: read-out: % inhibition of iodoacetamide probe labeling, Cys234. On the procedure: (§3) “X@Y” means that x % inhibition of iodoacetamide probe labeling was observed by treatment of cell lysate with the give compound in each row of the table for 1 h at a concentration of y micromolar. There was consistently high inhibition at C318 in addition to C287, which can be attributed to an allosteric inhibition.

Assay [15] has as its target T13, CRBN Cys205 (Homo sapiens, UniProt Q96SW2).
T13 construct: endogenous in cells
The description is as above. The note with it: read-out: % inhibition of iodoacetamide probe labeling, Cys205. On the procedure:
as §3

The target of assay [16] is T14, CRBN Cys343 (Homo sapiens, UniProt Q96SW2).
T14 construct: endogenous in cells
Described as above. To be noted: read-out: % inhibition of iodoacetamide probe labeling, Cys343. The method, then: as §3

Assay [17] deals with T15, CRBN Cys318 (Homo sapiens, UniProt Q96SW2).
T15 construct: endogenous in cells
Described as above. On the procedure: as §3

Assay [18] deals with T16, CRBN Cys287 (Homo sapiens, UniProt Q96SW2).
T16 construct: endogenous in cells
Described as above. The method, then: as §3

The target of assay [19] is T17, CRBN Cys219 (Homo sapiens, UniProt Q96SW2).
T17 construct: endogenous in cells
The description is as above. The note with it: read-out: % inhibition of iodoacetamide probe labeling, Cys219. The method, then: as §3

Where [20] appears, read: 0.8 micromolar, cell lysate, 1 h.
The mark [21] stands for this setting: 20 micromolar, cell lysate, 1 h.
[22] abbreviates: read-out: % inhibition of iodoacetamide probe labeling, Cys287.

T15 sequence (Q96SW2 whole entry): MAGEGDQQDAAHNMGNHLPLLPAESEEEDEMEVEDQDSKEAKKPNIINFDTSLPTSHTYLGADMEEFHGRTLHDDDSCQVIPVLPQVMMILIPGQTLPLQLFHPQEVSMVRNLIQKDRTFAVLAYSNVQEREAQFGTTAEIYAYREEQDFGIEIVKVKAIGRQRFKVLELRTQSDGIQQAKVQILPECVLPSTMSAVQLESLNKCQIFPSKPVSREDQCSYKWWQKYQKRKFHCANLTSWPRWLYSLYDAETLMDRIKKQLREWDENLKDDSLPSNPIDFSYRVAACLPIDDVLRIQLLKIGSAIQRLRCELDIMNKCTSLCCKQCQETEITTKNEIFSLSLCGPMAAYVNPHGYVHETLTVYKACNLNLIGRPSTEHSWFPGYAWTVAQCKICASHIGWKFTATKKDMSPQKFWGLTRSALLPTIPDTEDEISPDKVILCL
T16 sequence (Q96SW2 whole entry): as above
T1 sequence (Q06187 whole entry): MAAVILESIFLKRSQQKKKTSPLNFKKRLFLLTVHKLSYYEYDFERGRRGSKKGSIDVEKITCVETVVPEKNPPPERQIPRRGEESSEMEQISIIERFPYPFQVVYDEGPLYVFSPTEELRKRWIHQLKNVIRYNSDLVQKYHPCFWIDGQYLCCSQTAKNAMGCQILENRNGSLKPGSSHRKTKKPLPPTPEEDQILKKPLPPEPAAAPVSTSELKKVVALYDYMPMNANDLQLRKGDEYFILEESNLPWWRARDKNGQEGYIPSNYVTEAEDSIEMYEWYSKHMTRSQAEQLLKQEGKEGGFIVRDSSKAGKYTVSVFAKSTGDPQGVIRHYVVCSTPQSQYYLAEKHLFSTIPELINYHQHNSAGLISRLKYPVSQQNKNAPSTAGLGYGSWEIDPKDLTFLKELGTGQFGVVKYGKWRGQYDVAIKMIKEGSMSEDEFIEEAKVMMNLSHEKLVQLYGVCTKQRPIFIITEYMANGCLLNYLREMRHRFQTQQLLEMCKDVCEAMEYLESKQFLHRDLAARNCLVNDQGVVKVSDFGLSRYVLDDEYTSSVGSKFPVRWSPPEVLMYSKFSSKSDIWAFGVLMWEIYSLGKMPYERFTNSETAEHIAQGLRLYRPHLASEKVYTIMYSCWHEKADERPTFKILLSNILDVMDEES
T3 sequence (Q96SW2 whole entry): as the sequence (Q96SW2 whole entry) above
T12 sequence (Q96SW2 whole entry): as above
T9 sequence (Q96SW2 whole entry): as above
T2 sequence (Q96SW2 whole entry): as above
T13 sequence (Q96SW2 whole entry): as above
T10 sequence (Q96SW2 whole entry): as above
T17 sequence (Q96SW2 whole entry): as above
T6 sequence (Q96SW2 whole entry): as above
T7 sequence (Q96SW2 whole entry): as above
T4 sequence (Q96SW2 whole entry): as above
T14 sequence (Q96SW2 whole entry): as above
T8 sequence (Q96SW2 whole entry): as above
CRBN-318, sequence (Q96SW2 whole entry): as above
T5 sequence (Q96SW2 whole entry): as above
CRBN-287, sequence (Q96SW2 whole entry): as above

In the case of `C=CC(=O)N1CC(Cc2ccc(C)cc2)C1`, the “inhibition of probe labeling, BTK_481, Den.” value in assay [1] (denatured state) was determined as 99%. Moreover, the “inhibition of probe labeling, BTK_481, Nat.” value in assay [1] (native state) was 99%. In assay [2], the “inhibition of probe labeling, CRBN_188, Den.” value is listed as −21% and the “inhibition of probe labeling, CRBN_188, Nat.” value is −13%. In [3], the “inhibition of probe labeling, CRBN_219, Den.” value is given as 24% and the “inhibition of probe labeling, CRBN_219, Nat.” value was −6%. Further, the “inhibition of probe labeling, CRBN_343, Den.” value in assay [4] is −28%. In addition, the “inhibition of probe labeling, CRBN_326, Den.” value in assay [5] is listed as −16%. In addition, in [6], the “inhibition of probe labeling, CRBN_310, Den.” value is −1% and the “inhibition of probe labeling, CRBN_310, Nat.” value is reported as 9%. Also, in assay [7], the “inhibition of probe labeling, CRBN_234, Den.” value is given as −7% and the “inhibition of probe labeling, CRBN_234, Nat.” value was −4%. Also, the “inhibition of probe labeling, CRBN_441, Den.” value in assay [8] is recorded as −24%. In assay [9], the “inhibition of probe labeling, CRBN_322, Den.” value is listed as 15% and the “inhibition of probe labeling, CRBN_322, Nat.” value amounted to 36%. In [10], the “inhibition of probe labeling, CRBN_205, Den.” value is reported as −11% and the “inhibition of probe labeling, CRBN_205, Nat.” value is recorded as −23%. Besides, the “inhibition of probe labeling, CRBN_287, Den.” value in [11] is listed as 67%. Moreover, in [12], the “inhibition of probe labeling, CRBN_318, Den.” value is 11%. Also, the “inhibition of probe labeling, TEC_449, Den.” value in assay [13] (denatured state) is 98%. In addition, in assay [13] (native state), the “inhibition of probe labeling, TEC_449, Nat.” value is on record as 99%.

Regarding `COc1ccccc1-c1cccc(OC2CN(C(=O)/C(C#N)=C/C(C)C)C2)c1` [Example A8], the inhibition (in general, the relative decrease from the control value, in per cent) at 100 µM in assay [14] was 31%; in assay [15] it was 19%; in assay [16], 10%; in [17] (read-out: % inhibition of iodoacetamide probe labeling, Cys318, 100 micromolar, cell lysate, 1 h) it was 93%; in [18] (setting [22]) it was 96%; in assay [19], -5%. In addition, the inhibition at 500 µM in assay [14] was determined as 44%; in assay [15], 32%; in assay [17] (read-out: % inhibition of iodoacetamide probe labeling, Cys318, 500 micromolar, cell lysate, 1 h), 96%; in [18] (setting [22]) it was 98%; in assay [19], 4%. The inhibition at 0.8 µM is 76% in assay [17] (setting [20]) and 80% in [18] (setting [20]). In addition, the inhibition at 20 µM in [17] (setting [21]) is 90%; in assay [18] (setting [21]), 94%.

Values taken from patent US20220298213A1, “IN VIVO ENGINEERED CEREBLON PROTEIN” (Vividion Therapeutics, Inc., priority 2018, published 2022).
